{
  "source": "patent US9931428B2",
  "about": "“Ophthalmic compositions” (priority 2011, dated 2018)",
  "assay_in_all_cases": "BS EN1276 quantitative suspension test, bactericidal activity, dirty conditions",
  "type_in_all_cases": "cell-based",
  "settings_in_all_cases": "aqueous solution of test article; EN 1276 dirty conditions",
  "key": {"[1]": {"system": "Pseudomonas aeruginosa ATCC 15442"}, "[2]": {"system": "Staphylococcus aureus NCTC 6571"}, "Bacillus subtillus 10262": {"system": "Bacillus subtillus 10262"}, "Escherichia coli 11867": {"system": "Escherichia coli 11867"}},
  "data": [
    {"smiles": "O=C(O)CC(O)(CC(=O)O)C(=O)O", "note": "[Citric acid, citric acid]", "values": [
      {"measurement": "Microbial reduction", "setting": "[1]", "value": "2.69 × 10^3"},
      {"measurement": "Microbial reduction", "setting": "[2]", "value": "3.02 × 10^2"},
      {"measurement": "Microbial reduction", "setting": "Bacillus subtillus 10262", "value": "2.29 × 10^3"},
      {"measurement": "Microbial reduction", "setting": "Escherichia coli 11867", "value": "6.46 × 10^2"}
    ]}
  ]
}
